In paper PMC11926788, “Effect of SSR504734, a Selective Glycine Transporter Type 1 Inhibitor, on Seizure Thresholds, Neurotransmitter Levels, and Inflammatory Markers in Mice” (ACS Chemical Neuroscience, 2025):
Counter-ions that a name gives are not always drawn.

Key:
[1] = system: i.v. PTZ-induced seizures in mice; assay: Intravenous (i.v.) PTZ seizure threshold test; assay type: in vivo; settings: VPA 150 mg/kg
Protocol: Mice were individually placed in a plastic restrainer (12 cm long, 3 cm inner diameter), and the lateral vein of each mouse was catheterized using a 27-gauge needle (Sterican, B. Braun Melsungen, Melsungen, Germany). The needle was attached by polyethylene tubing (PE20RW, Plastics One Inc., Roanoke, VA, USA) to a 10 mL plastic syringe containing 1% solution of PTZ in saline (Sigma-Aldrich, St. Louis, MO, USA) and mounted to a syringe pump (model Physio 22, Hugo Sachs Elektronik, Harvard Apparatus GmbH, March-Hugstetten, Germany). Piece of adhesive tape was used to secure the needle. The proper placement of the needle in the vein was verified by the appearance of blood in the tubing. During the test, mice were placed in a transparent box for observation. The PTZ solution was administered to freely moving mice at a constant rate of 0.2 mL/min. The time intervals from the initiation of PTZ infusion to the occurrence of the three following end points, i.e., (1) the first myoclonic twitch, (2) generalized clonic seizure with loss of righting reflex, and (3) forelimb tonus, were recorded. The PTZ infusion was terminated when tonic seizures, which were often fatal for the mice, began. All mice that survived were euthanized immediately. The thresholds were calculated separately for each end point using the following formula: threshold dose of PTZ (mg/kg) = infusion duration (s) × infusion rate (mL/s) × PTZ concentration (mg/mL)/body weight (kg). Seizure threshold was expressed as the amount of PTZ (mg/kg) ± SD (standard deviation) needed to produce the first observable sign of each end point. Each group consisted of 12–15 animals.

[2] = PAMPA (Gentest Precoated PAMPA Plate System); assay type: in vitro ADME; settings: ± SD
Protocol: (§1) A series of in vitro ADME-Tox tests were performed for SSR504734 in order to estimate its drugability. The ADME-Tox parameters including permeability, plasma protein binding, metabolic stability, neurotoxicity, and hepatotoxicity were carried out as described previously.[31],[32] The ability of SSR504734 to penetrate through the biological membrane by passive diffusion was estimated by the Gentest Precoated PAMPA Plate System (Corning, Tewksbury, MA) and expressed as the permeability coefficient (Pe). The protein binding analysis was performed by using the commercial TRANSIL^XL PPB test, which mimics in vitro physiological plasma conditions where human serum albumin (HAS) and alpha-1-acid glycoprotein AGP are present in a 24:1 ratio. The human metabolism of SSR504734 was studied using human liver microsomes (HLMs) provided by Sigma-Aldrich. The hepatotoxicity and neurotoxicity were estimated in cellular models with the use of hepatoma HepG2 and neuroblastoma SH-SY5Y cell lines to perform the preliminary safety tests. The cells were incubated with SSR504734 at the concentration range of 0.1–100 μM. 1 μM cytostatic drug doxorubicin (DX) was used as the reference.

GlyT1 = settings: in vitro assay; cited from earlier work
[3] = system: human serum albumin and alpha-1-acid glycoprotein; assay: Plasma protein binding (TRANSIL XL PPB test); assay type: in vitro ADME; settings: ± SD, fraction bound to plasma proteins, read-out: PPB fb (converted)
Protocol: as §1

[4] = system: glutamate, GABA, adenosine, glycine concentrations in cortex, hippocampus, brainstem; assay: Determination of neurotransmitters in brain structures (LC-MS/MS, HPLC-FLD); assay type: in vivo, mice
Protocol: Mice were administered with SSR504734 or saline acutely or repeatedly for 14 days and subjected to maximal electroshock seizures 60 min after treatment. Immediately following seizure induction, the animals were decapitated. Brains were removed from the skull and washed with ice-cold 0.9% NaCl. Cortex, hippocampus, and brainstem were isolated by microdissection and collected into Eppendorf tubes. Samples were frozen in liquid nitrogen and kept at −80 °C until the day of analysis.
Adenosine, GABA, and glutamate concentrations in mouse cortex, brainstem, and hippocampus were determined using an LC-MS/MS method. Stock solutions of GABA, adenosine, glutamate, and their internal standards (ISs), i.e., adenosine-13C5, GABA-d6, and glutamate-d5 (Toronto Research Chemicals Inc., Canada), were prepared using methanol for GABA and its IS and deionized water for adenosine, glutamate, and their ISs and stored at 4 °C. The stock solutions of GABA, adenosine, and glutamate were then appropriately diluted with acetonitrile/water 1:1 (v/v) solution to achieve various concentration levels required for the experiments. Brain tissue samples were homogenized using a Bead Ruptor Elite, bead mill homogenizer (Omni International, USA) with 90 μL of deionized water per 10 mg of tissue. The resulting homogenates were further diluted at 1:10 to 1:100 (v/v) ratios (depending on the expected analyte concentration) with acetonitrile/water 1:1 (v/v) solution. […] The supernatants were then placed in autosampler vials.
Analyte separation was performed on an Exion LC AC system (Sciex, USA) coupled with a QTRAP 4500 triple quadrupole MS instrument (Sciex, USA). A 0.2 to 2 μL aliquot of sample was injected via an autosampler maintained at 15 °C into an XBridge HILIC (Waters, Ireland) analytical column (2.1 × 150 mm, 3.5 μm) with the column oven set at 25 °C.
MS detection employed electrospray ionization (ESI) in positive ion mode. According to the results of flow-injection analysis, curtain gas was set at 30 psi, ion spray voltage at 5500 V, and the source temperature at 450 °C, with ion spray gases 1 and 2 at 50 and 40 psi, respectively.
Data acquisition and processing were conducted with Analyst version 1.7 software. The calibration curves were constructed by plotting the ratio of the peak areas of the target analytes to those of their respective ISs against the concentrations of the analytes. These curves were derived using a weighted linear regression analysis method (1/x). Due to the availability of stable isotope-labeled standards and the high endogenous concentrations of adenosine, glutamate, and GABA in the brain tissue, the calibrators were prepared in water.
Glycine concentrations in brain structures were analyzed by using high-performance liquid chromatography with fluorescence detection (HPLC-FLD). A stock solution of glycine (20 mg/mL) was prepared in water and diluted with the same solvent to prepare working standard solutions at the concentration range of 0.2–20 μg/mL. The homogenates were obtained as described above, and they were centrifuged before analysis for 5 min at 10,000 rpm (Eppendorf miniSpin centrifuge). To prepare samples for analysis, 2 μL (for brainstem) or 5 μL (for the remaining structures) of homogenate supernatants was transferred to Eppendorf tubes and diluted with water to 20 μL. […] The reaction mixture was vortexed for 15 s, spinned down to make sure that all the sample is at the bottom of the tube, and incubated for 3 min at room temperature in darkness. The aliquots of 5 μL were injected into the column. […] The EZChrom Elite Client/Server v. 3.2 software was used for data collection and analysis. […] The mobile phase consisted of methanol (solvent A) and 0.05 M phosphate buffer adjusted to pH = 4.5 with phosphoric acid 30% (solvent B) and run in a gradient mode at a flow rate of 1 mL/min.

[5] = acute treatment i.p., nonstimulated (sham) mice

Compound: O=C(NC(c1ccccc1)C1CCCCN1)c1cccc(C(F)(F)F)c1Cl [SSR504734, 2-chloro-N-[(S)-phenyl[(2S)-piperidin-2-yl]methyl]-3-trifluoromethyl benzamide monohydrochloride]
- effect on thresholds for myoclonic twitch, generalized clonus and forelimb tonus ([1]; 14-day treatment i.p.): no significant effect
- effect on thresholds for myoclonic twitch, generalized clonus and forelimb tonus ([1]; single administration i.p.): no significant effect
- Papp ([2]; PAMPA, read-out: PAMPA Pe): 14.8 ± 1.49 ×10⁻⁶ cm/s
- PAMPA Pe [2]: 14.80 10^–6 cm/s
- IC50 for GlyT1 inhibition (GlyT1): 7.8 (±2.6) ng/mL
- fraction unbound [3]: 0.013
- glutamate, GABA, adenosine, glycine concentrations in brain structures ([4]; 14-day treatment, nonstimulated (sham) and MES-stimulated mice): No alterations
- GABA and glycine concentrations in any of the studied brain regions ([4]; acute treatment i.p.): did not alter
- adenosine concentrations in cortex and hippocampus ([4]; acute treatment i.p.): no changes
- glutamate concentration in cortex and hippocampus ([4]; acute treatment i.p.): No alterations
- glutamate concentration in the brainstem ([4]; acute treatment i.p., mice subjected to the MES test): no statistically significant changes
- fold decrease of adenosine concentration in the brainstem [4, 5]: ~2 fold
- glutamate concentration in the brainstem [4, 5]: significant decrease
